Test system: MV-4-11 cells
Assay: Gene expression microarray analysis (Affymetrix PrimeView) and GSEA
Format: cell-based, human
Set-up: RFU PODN (11730768_x_at) / Fold change /veh PODN (11730768_x_at) / RFU LINC00158 (11744669_a_at) / Fold change /veh LINC00158 (11744669_a_at) / RFU DUSP10 (11751237_a_at) / Fold change /veh DUSP10 (11751237_a_at) / RFU ID3 (11757404_x_at) / Fold change /veh ID3 (11757404_x_at) / RFU PLEKHG5 (11737974_s_at) / Fold change /veh PLEKHG5 (11737974_s_at) / RFU LRRC4B (11730491_at) / Fold change /veh LRRC4B (11730491_at) / RFU GIMAP4 (11747438_a_at) / Fold change /veh GIMAP4 (11747438_a_at) / RFU KRT8 (11758183_x_at) / Fold change /veh KRT8 (11758183_x_at) / RFU CNN1 (11734310_a_at) / Fold change /veh CNN1 (11734310_a_at) / RFU VPS37D (11726825_at) / Fold change /veh VPS37D (11726825_at) / RFU C10orf10 (11716522_x_at) / Fold change /veh C10orf10 (11716522_x_at) / RFU KIR2DL2 /// KIR2DL4 /// KIR2DL5A /// KIR2DL5B /// KIR2DS1 /// KIR2DS2 /// KIR2DS3 /// KIR2DS4 /// KIR3DL3 /// KIR3DL3 /// KIR3DS1 (11738374_at) / Fold change /veh KIR2DL2 /// KIR2DL4 /// KIR2DL5A /// KIR2DL5B /// KIR2DS1 /// KIR2DS2 /// KIR2DS3 /// KIR2DS4 /// KIR3DL3 /// KIR3DL3 /// KIR3DS1 (11738374_at) / RFU C1QL1 (11718748_at) / Fold change /veh C1QL1 (11718748_at) / RFU TMPRSS4 (11747572_a_at) / Fold change /veh TMPRSS4 (11747572_a_at) / RFU HAMP (11756126_x_at) / Fold change /veh HAMP (11756126_x_at) / RFU RNFT2 (11725882_a_at) / Fold change /veh RNFT2 (11725882_a_at) / RFU NR4A2 (11747474_a_at) / Fold change /veh NR4A2 (11747474_a_at) / RFU ABCC12 (11746883_a_at) / Fold change /veh ABCC12 (11746883_a_at) / RFU TMEM136 (11760407_x_at) / Fold change /veh TMEM136 (11760407_x_at) / RFU CLDN22 /// WWC2 (11732394_at) / Fold change /veh CLDN22 /// WWC2 (11732394_at) / RFU HLA-DPB1 (11760878_x_at) / Fold change /veh HLA-DPB1 (11760878_x_at) / RFU SPINT1 (11716480_a_at) / Fold change /veh SPINT1 (11716480_a_at) / RFU GAP43 (11754022_s_at) / Fold change /veh GAP43 (11754022_s_at) / RFU A4GNT (11735810_at) / Fold change /veh A4GNT (11735810_at) / RFU PRB3 (11715151_x_at) / Fold change /veh PRB3 (11715151_x_at) / RFU TUBB4B (11761932_at) / Fold change /veh TUBB4B (11761932_at) / RFU CAPN14 (11732068_a_at) / Fold change /veh CAPN14 (11732068_a_at) / RFU TMCC2 (11721928_a_at) / Fold change /veh TMCC2 (11721928_a_at) / RFU IRGQ (11745062_a_at) / Fold change /veh IRGQ (11745062_a_at) / RFU FAM174B (11720279_a_at) / Fold change /veh FAM174B (11720279_a_at) / RFU TMPRSS4 (11748680_a_at) / Fold change /veh TMPRSS4 (11748680_a_at) / RFU FAM212B (11763350_a_at) / Fold change /veh FAM212B (11763350_a_at) / RFU PLEKHG5 (11743358_a_at) / Fold change /veh PLEKHG5 (11743358_a_at) / RFU ZSCAN30 (11745921_a_at) / Fold change /veh ZSCAN30 (11745921_a_at) / RFU CMKLR1 (11741424_a_at) / Fold change /veh CMKLR1 (11741424_a_at) / RFU LOC101060620 /// MAPK8IP1 (11723275_at) / Fold change /veh LOC101060620 /// MAPK8IP1 (11723275_at) / RFU SPTSSB (11747773_x_at) / Fold change /veh SPTSSB (11747773_x_at) / RFU PRSS12 (11739890_at) / Fold change /veh PRSS12 (11739890_at) / RFU BIN1 (11741810_x_at) / Fold change /veh BIN1 (11741810_x_at) / RFU WNT11 (11732464_a_at) / Fold change /veh WNT11 (11732464_a_at) / RFU C10orf10 (11716521_a_at) / Fold change /veh C10orf10 (11716521_a_at) / RFU C5orf56 (11738089_at) / Fold change /veh C5orf56 (11738089_at) / RFU CYB561 (11721691_x_at) / Fold change /veh CYB561 (11721691_x_at) / RFU ANKRD19P (11752326_a_at) / Fold change /veh ANKRD19P (11752326_a_at) / RFU OR2T12 /// OR2T33 /// OR2T8 (11738714_s_at) / Fold change /veh OR2T12 /// OR2T33 /// OR2T8 (11738714_s_at) / RFU VCAN (11748164_a_at) / Fold change /veh VCAN (11748164_a_at) / RFU JSRP1 (11732532_at) / Fold change /veh JSRP1 (11732532_at) / RFU KRTAP10-11 (11738290_x_at) / Fold change /veh KRTAP10-11 (11738290_x_at) / RFU MYO3A (11730013_a_at) / Fold change /veh MYO3A (11730013_a_at) / RFU EBF3 (11725865_a_at) / Fold change /veh EBF3 (11725865_a_at) / RFU CAMK2N1 (11719241_x_at) / Fold change /veh CAMK2N1 (11719241_x_at) / RFU C5orf56 (11738088_a_at) / Fold change /veh C5orf56 (11738088_a_at) / RFU OLFML3 (11715873_a_at) / Fold change /veh OLFML3 (11715873_a_at) / RFU LOC100653217 /// NTM (11731650_a_at) / Fold change /veh LOC100653217 /// NTM (11731650_a_at) / RFU MAPK11 (11762145_a_at) / Fold change /veh MAPK11 (11762145_a_at) / RFU FIZ1 (11724087_x_at) / Fold change /veh FIZ1 (11724087_x_at) / RFU OASL (11726364_x_at) / Fold change /veh OASL (11726364_x_at) / RFU SOX15 (11748057_x_at) / Fold change /veh SOX15 (11748057_x_at) / RFU CD79A (11719716_a_at) / Fold change /veh CD79A (11719716_a_at) / RFU HIST1H1D (11736915_at) / Fold change /veh HIST1H1D (11736915_at) / RFU CASKIN2 (11723855_a_at) / Fold change /veh CASKIN2 (11723855_a_at) / RFU LOC730098 (11760151_x_at) / Fold change /veh LOC730098 (11760151_x_at) / RFU OR4N2 (11742367_at) / Fold change /veh OR4N2 (11742367_at) / RFU PRRT2 (11749266_a_at) / Fold change /veh PRRT2 (11749266_a_at) / RFU SNX32 (11753110_a_at) / Fold change /veh SNX32 (11753110_a_at) / RFU CDHR5 (11726645_a_at) / Fold change /veh CDHR5 (11726645_a_at) / RFU RCAN1 (11760418_a_at) / Fold change /veh RCAN1 (11760418_a_at) / RFU FAM167A (11723789_a_at) / Fold change /veh FAM167A (11723789_a_at) / RFU FAM26E (11764081_at) / Fold change /veh FAM26E (11764081_at) / RFU ISYNA1 (11749810_s_at) / Fold change /veh ISYNA1 (11749810_s_at) / RFU ACY1 (11761880_at) / Fold change /veh ACY1 (11761880_at) / RFU 11764098_at / Fold change /veh 11764098_at / RFU SAMD14 (11745864_x_at) / Fold change /veh SAMD14 (11745864_x_at) / RFU NPB (11741838_a_at) / Fold change /veh NPB (11741838_a_at) / RFU TMPRSS6 (11731388_a_at) / Fold change /veh TMPRSS6 (11731388_a_at) / RFU KRTAP10-2 (11738614_at) / Fold change /veh KRTAP10-2 (11738614_at) / RFU ARHGAP8 /// PRR5-ARHGAP8 (11727945_x_at) / Fold change /veh ARHGAP8 /// PRR5-ARHGAP8 (11727945_x_at) / RFU KRTAP5-7 /// NADSYN1 (11734609_at) / Fold change /veh KRTAP5-7 /// NADSYN1 (11734609_at) / RFU RASL12 (11751679_a_at) / Fold change /veh RASL12 (11751679_a_at) / RFU CDKN2B (11736163_a_at) / Fold change /veh CDKN2B (11736163_a_at) / RFU PRF1 (11729649_at) / Fold change /veh PRF1 (11729649_at) / RFU, ZNF638 /// ZNF638-IT1 / Fold change vs veh, ZNF638 /// ZNF638-IT1 / RFU, PANK3 / Fold change vs veh, PANK3 / RFU, SH3YL1 / Fold change vs veh, SH3YL1 / RFU, ZEB2 / Fold change vs veh, ZEB2 / RFU, NRIP1 / Fold change vs veh, NRIP1 / RFU, PTTG1IP / Fold change vs veh, PTTG1IP / RFU, CAPN2 / Fold change vs veh, CAPN2 / RFU, MED14 / Fold change vs veh, MED14 / RFU, SNORA58 / Fold change vs veh, SNORA58 / RFU, C1orf63 / Fold change vs veh, C1orf63 / RFU, LRRFIP1 / Fold change vs veh, LRRFIP1 / RFU, NDUFAF7 / Fold change vs veh, NDUFAF7 / RFU, SLC12A2 / Fold change vs veh, SLC12A2 / RFU, IBTK / Fold change vs veh, IBTK / RFU, ESF1 / Fold change vs veh, ESF1 / Fold change vs veh, TMEM50B / RFU, TAOK1 / Fold change vs veh, TAOK1 / RFU, ACBD3 / Fold change vs veh, ACBD3 / RFU, TMA16 / Fold change vs veh, TMA16 / RFU, RWDD3 / Fold change vs veh, RWDD3 / RFU, BCAT1 / Fold change vs veh, BCAT1 / RFU, EDEM3 / Fold change vs veh, EDEM3 / RFU, TMEM33 / Fold change vs veh, TMEM33 / RFU, WDR75 / Fold change vs veh, WDR75 / RFU, AHCTF1 / Fold change vs veh, AHCTF1 / RFU, TFRC / Fold change vs veh, TFRC / RFU, ZDHHC17 / Fold change vs veh, ZDHHC17 / RFU, NOM1 / Fold change vs veh, NOM1 / RFU, ARL8B / Fold change vs veh, ARL8B / RFU, ZBTB11 / Fold change vs veh, ZBTB11 / RFU, TAMM41 / Fold change vs veh, TAMM41 / RFU, KIAA1704 /// LOC100996395 / Fold change vs veh, KIAA1704 /// LOC100996395 / RFU, ING1 / Fold change vs veh, ING1 / RFU, TRMT61B / Fold change vs veh, TRMT61B / RFU, FUBP3 / Fold change vs veh, FUBP3 / RFU, TP53 / Fold change vs veh, TP53 / RFU, TNKS2 / Fold change vs veh, TNKS2 / RFU, ZFP14 / Fold change vs veh, ZFP14 / RFU, ACTR2 / Fold change vs veh, ACTR2 / RFU, PPP3R1 / Fold change vs veh, PPP3R1 / RFU, PIK3R1 / Fold change vs veh, PIK3R1 / RFU, HNRNPA1 / Fold change vs veh, HNRNPA1 / RFU, RNF170 / Fold change vs veh, RNF170 / RFU, ZNF28 / Fold change vs veh, ZNF28 / RFU, RNGTT / Fold change vs veh, RNGTT / RFU, OGT / Fold change vs veh, OGT / RFU, BRD1 / Fold change vs veh, BRD1 / RFU, MARS / Fold change vs veh, MARS / RFU, ZNF655 / Fold change vs veh, ZNF655 / RFU, FAHD1 / Fold change vs veh, FAHD1 / RFU, BDP1 / Fold change vs veh, BDP1 / RFU, LRRCC1 / Fold change vs veh, LRRCC1 / RFU, ARID1A / Fold change vs veh, ARID1A / RFU, ZNF146 / Fold change vs veh, ZNF146 / RFU, ZNF330 / Fold change vs veh, ZNF330 / RFU, GPN3 / Fold change vs veh, GPN3 / RFU, C9orf123 / Fold change vs veh, C9orf123 / RFU, N4BP2L2 / Fold change vs veh, N4BP2L2 / RFU, ARFIP1 / Fold change vs veh, ARFIP1 / RFU, FAM179B / Fold change vs veh, FAM179B / RFU, BCL10 / Fold change vs veh, BCL10 / RFU, UHRF1BP1L / Fold change vs veh, UHRF1BP1L / RFU, BET1 / Fold change vs veh, BET1 / RFU, CNOT2 / Fold change vs veh, CNOT2 / RFU, ZNF268 / Fold change vs veh, ZNF268 / Fold change vs veh, ZNF507 / RFU, DGCR2 / Fold change vs veh, DGCR2 / RFU, WDSUB1 / Fold change vs veh, WDSUB1 / Fold change vs veh, HSP90B1 /// MIR3652 / RFU, ADSS / Fold change vs veh, ADSS / RFU, GK / Fold change vs veh, GK / RFU, ZNF148 / Fold change vs veh, ZNF148 / RFU, TAF9 / Fold change vs veh, TAF9 / RFU, SLC1A5 / Fold change vs veh, SLC1A5 / RFU, SLMO2 / Fold change vs veh, SLMO2 / RFU, ABCC4 / Fold change vs veh, ABCC4 / RFU, LOC101060439 /// RAP1B / Fold change vs veh, LOC101060439 /// RAP1B / RFU, RFX7 / Fold change vs veh, RFX7 / RFU, GTPBP10 / Fold change vs veh, GTPBP10 / RFU, CNEP1R1 / Fold change vs veh, CNEP1R1 / RFU, BIVM-ERCC5 /// ERCC5 / Fold change vs veh, BIVM-ERCC5 /// ERCC5 / RFU, ILF3 / Fold change vs veh, ILF3 / RFU 11762660_at / Fold change /veh 11762660_at / RFU VCAN (11757783_s_at) / Fold change /veh VCAN (11757783_s_at) / RFU DDX43 (11728927_at) / Fold change /veh DDX43 (11728927_at) / RFU KRT8 (11758188_x_at) / Fold change /veh KRT8 (11758188_x_at) / RFU NKD1 (11759106_at) / Fold change /veh NKD1 (11759106_at) / RFU SRD5A1 (11742802_a_at) / Fold change /veh SRD5A1 (11742802_a_at) / RFU TPSAB1 /// TPSB2 (11721975_s_at) / Fold change /veh TPSAB1 /// TPSB2 (11721975_s_at) / RFU GSTM3 (11746129_a_at) / Fold change /veh GSTM3 (11746129_a_at) / RFU IL23R (11737362_x_at) / Fold change /veh IL23R (11737362_x_at) / RFU TMEM51 (11727254_a_at) / Fold change /veh TMEM51 (11727254_a_at) / RFU PIWIL2 (11732686_x_at) / Fold change /veh PIWIL2 (11732686_x_at) / RFU ORM1 (11744905_x_at) / Fold change /veh ORM1 (11744905_x_at) / RFU CCDC152 (11743942_at) / Fold change /veh CCDC152 (11743942_at) / RFU ECM1 (11717891_a_at) / Fold change /veh ECM1 (11717891_a_at) / RFU IL23R (11748794_a_at) / Fold change /veh IL23R (11748794_a_at) / RFU TNFAIP8L3 (11732012_x_at) / Fold change /veh TNFAIP8L3 (11732012_x_at) / RFU MBOAT4 (11741988_at) / Fold change /veh MBOAT4 (11741988_at) / RFU 11764193_at / Fold change /veh 11764193_at / RFU TMEM53 (11763286_at) / Fold change /veh TMEM53 (11763286_at) / RFU MAGEB2 (11727129_at) / Fold change /veh MAGEB2 (11727129_at) / RFU TMEM200A (11744735_a_at) / Fold change /veh TMEM200A (11744735_a_at) / RFU CCDC152 (11751479_a_at) / Fold change /veh CCDC152 (11751479_a_at) / RFU FAM211A (11726209_a_at) / Fold change /veh FAM211A (11726209_a_at) / RFU RGS16 (11746705_a_at) / Fold change /veh RGS16 (11746705_a_at) / RFU VCAN (11755009_s_at) / Fold change /veh VCAN (11755009_s_at) / RFU RHOB (11743442_s_at) / Fold change /veh RHOB (11743442_s_at) / RFU RGS16 (11720943_a_at) / Fold change /veh RGS16 (11720943_a_at) / RFU RGS16 (11720944_at) / Fold change /veh RGS16 (11720944_at) / RFU, VPS4B / Fold change vs veh, VPS4B / RFU, CREB1 / Fold change vs veh, CREB1 / RFU, DNAJC13 / Fold change vs veh, DNAJC13 / RFU, GNAQ / Fold change vs veh, GNAQ / RFU, CDK5R1 / Fold change vs veh, CDK5R1 / RFU, ZRANB3 / Fold change vs veh, ZRANB3 / RFU, CUL4A / Fold change vs veh, CUL4A / RFU, CCNY / Fold change vs veh, CCNY / RFU, UFL1 / Fold change vs veh, UFL1 / RFU, COG3 / Fold change vs veh, COG3 / RFU, DIAPH2 / Fold change vs veh, DIAPH2 / RFU, SKA2 / Fold change vs veh, SKA2 / RFU, AFF3 / Fold change vs veh, AFF3 / RFU, LMF1 / Fold change vs veh, LMF1 / RFU, IPO11 / Fold change vs veh, IPO11 / RFU, DFFB / Fold change vs veh, DFFB / RFU, FOXP1 / Fold change vs veh, FOXP1 / RFU, CARD8 / Fold change vs veh, CARD8 / RFU, STRN3 / Fold change vs veh, STRN3 / RFU, ADK / Fold change vs veh, ADK / RFU, RASSF2 / Fold change vs veh, RASSF2 / RFU, WIPF1 / Fold change vs veh, WIPF1 / RFU, LARP1B / Fold change vs veh, LARP1B / RFU, RASA1 / Fold change vs veh, RASA1 / RFU, RB1 / Fold change vs veh, RB1 / RFU, PPFIA1 / Fold change vs veh, PPFIA1 / RFU, MAT2A / Fold change vs veh, MAT2A / RFU, CCT5 / Fold change vs veh, CCT5 / RFU, WDR92 / Fold change vs veh, WDR92 / RFU, CUX1 / Fold change vs veh, CUX1 / RFU, TTC7A / Fold change vs veh, TTC7A / RFU, TMEM135 / Fold change vs veh, TMEM135 / RFU, DEPTOR / Fold change vs veh, DEPTOR / RFU, CPM / Fold change vs veh, CPM / RFU, DNAJB6 / Fold change vs veh, DNAJB6 / RFU, CACNA2D3 / Fold change vs veh, CACNA2D3 / RFU, DTX4 / Fold change vs veh, DTX4 / RFU, TFCP2 / Fold change vs veh, TFCP2 / RFU, GMCL1 /// GMCL1P1 / Fold change vs veh, GMCL1 /// GMCL1P1 / RFU, AEBP2 / Fold change vs veh, AEBP2 / RFU, SNHG1 /// SNORD22 /// SNORD25 /// SNORD26 /// SNORD27 /// SNORD28 /// SNORD29 /// SNORD31 / Fold change vs veh, SNHG1 /// SNORD22 /// SNORD25 /// SNORD26 /// SNORD27 /// SNORD28 /// SNORD29 /// SNORD31 / Fold change (Aza/veh), C12orf56 (ProbeSet 11735607_a_at) / Fold change (ACY-1035/veh), C12orf56 (ProbeSet 11735607_a_at) / Fold change (Aza/veh), FGFR1OP (ProbeSet 11751329_s_at) / Fold change (ACY-1035/veh), FGFR1OP (ProbeSet 11751329_s_at) / Fold change (Aza/veh), VPS36 (ProbeSet 11739960_a_at) / Fold change (ACY-1035/veh), VPS36 (ProbeSet 11739960_a_at) / RFU SYPL1 (11715823_x_at) / Fold change /veh SYPL1 (11715823_x_at) / RFU IGFBP7 (11715501_s_at) / Fold change /veh IGFBP7 (11715501_s_at) / RFU REEP3 (11722064_at) / Fold change /veh REEP3 (11722064_at) / RFU IGLL1 (11728026_x_at) / Fold change /veh IGLL1 (11728026_x_at): dose or concentration left out as unconfirmed
Conditions: MV-4-11 cells, 48 hours

Nc1ncn([C@@H]2O[C@H](CO)[C@@H](O)[C@H]2O)c(=O)n1 [azacitidine]
Fold change /veh PLEKHG5 (11737974_s_at): 1.17

Source: PMC5218480 (PLoS ONE, 2017)
